US20100130408A1, “USE OF MODIFIED CYCLOSPORINS” (priority 2006, published 2010)

Assays:
TWNT-4 cells [1] = assay: gene expression using real time RT-PCR; format: cell-based, human; conditions: 0.5 μM
Experimental: Analysis of gene expression using real time RT-PCR: Total RNA is prepared from TWNT-4 cells with Trizol reagent (Invitrogen, Carlsbad, Calif., USA), which are maintained in either the presence or absence of NIM811 in 10% FCS for 24 h. cDNA is synthesized from […] RNA with GeneAmp™ RNA PCR (Applied Biosystems, Branchburg, N.J., USA) using random hexamers. Real-time PCR is performed using LightCycler-FastStart DNA Master SYBR Green 1 (Roche, Tokyo, Japan) as described in Nakamuta, et al, Int J. Mol Med (2005) 16(4):631-635. A reaction mixture (20 μl) is used containing LightCycler-FastStart DNA Master SYBR Green 1, 4 mM MgCl2, 0.5 μM of the upstream and downstream PCR primers, and […] of the first strand cDNA as a template. To control for variations in the reactions, all PCRs are normalized against glyceraldehyde-3-phosphate dehydrogenase (GAPDH) expression. The primers which may be used are as follows: 5′-[…]-3′ (forward primer) (SEQ ID NO. 1) and 5′-[…]-3′ (reverse primer)(SEQ ID NO. 2) for human type I collagen a1 chain (GenBank™ accession number NM-000088) (21); 5′-[…]-3′ (forward primer)(SEQ ID NO. 3) and 5′-[…]-3′ (reverse primer) for human a-SMA (GenBank™ accession number […]); 5′-[…]-3′ (forward primer) and 5′-[…]-3′ (reverse primer) for MMP-1 (GenBank™ accession number NM002421); 5′-[…]-3′ (forward primer) and 5′-[…]-3′ (reverse primer)(SEQ ID NO. 4) for TIMP-1 (GenBank™ accession number NM003254); 5′-[…]-3′ (forward primer)(SEQ ID NO. 5) and 5′-[…]-3′ (reverse primer)(SEQ ID NO. 6) for Smad7 (Quan, et al, J Biol Chem (2005) 80:8079-8085); 5′-[…]-3′ (forward primer)(SEQ ID NO. 7) and 5′-[…]-3′ (reverse primer)(SEQ ID NO. 8) for transforming growth factor □ receptor I (TGFβRI) (Woszcyk et al, Med Sci Monit (2004) 10:C33-C37)).

TWNT-4 cells [2] = assay: MMP-1, TIMP-1, and collagenase assay; format: cell-based, human
Experimental: (§1) A. In vitro Cell culture: HSCs are isolated from the liver of male Wistar rats by sequential in situ perfusion with collagenase and digestion with pronase, followed by centrifugation in a double-layered (17%/11.5%) metrizamide solution (Sigma. Chemical, St. Louis, Mo.), as described in Kato, et al, J. Hepatol (1999) 31:91-99. HSCs are cultured in Dulbecco's modified Eagle's medium (DMEM) with 10% fetal calf serum (FCS). Experiments are performed on cells between the third and fourth serial passages. To measure […] matrix metalloproteinase (MMP-1) and tissue inhibitor of matrix metalloproteinase (TIMP-1), TWNT-4 cells which is a human cell line derived from HSCs as produced according to Shibata, et al, Cell Transplant (2003) 12:499-507 is used for evaluating the effects of Fasudil on MMP-1 and TIMP-1. TWNT-4 cells are cultured in DMEM with 10% FCS as reported previously (Id). NIM811 (Novartis Pharma AG, Basel, Switzerland) is dissolved in DMEM and added to cultures. Cell viability of HSCs is more than 90% under serum-free conditions for 24 h in the presence of 2 μM NIM811.
MMP-1, TIMP-1, and collagenase assay: Cultured TWNT-4 cells are incubated in serum-free medium in the presence or absence of NIM811 for 24 h. MMP-1 and TIMP-1 production are determined in culture media by ELISA with a Biotrak ELISA system for human MMP-1 (Amersham Biosciences, Piscataway, N.J., USA) and an hTIMP-1 kit (Daiichi Fine Chemical Co. Ltd., Toyama, Japan), respectively following procedures described in Fukushima, et al, Liver Int (2005) 25:829-838. Active MMP-1 and pro-MMP-1 in culture media are determined with a MMP-1 Biotrak Activity Assay System (Amersham).

Cell viability of HSCs = format: cell-based; conditions: male, Wistar, rat, primary hepatic stellate cells (HSCs), 2 μM NIM811, serum-free conditions
Experimental: as §1

HCV = conditions: Watashi et al., Hepatology (2003); cited from earlier work
MAPKs Signaling Pathways = assay: Western blot analysis for phospho- and nonphospho-MAPKs; format: cell-based, human
Experimental: Western blot analysis for phospho- and nonphospho-MAPKs: Western blot analysis is performed as described in Uchimura, et al, Hepatology (2001) 33:91099. HSCs are starved for 24 h, then treated with or without NIM811 for 2 h. Whole cell lysates containing 1×10^7 TWNT-4 cells are prepared in 100 μl SDS-PAGE sample buffer. Protein lysates are subjected to 12% SDS-PAGE, transferred to a polyvinylidene difluoride membrane (Millipore, Bedford, Mass.), and probed with the primary antibody for ERK1/2 MAPK, phospho-ERK1/2 MAPK (Thr202/Tyr204), JNK, phospho-JNK (Thr183/Tyr185), p38 MAPK, or phospho-p38 MAPK (Thr180/Tyr182) (New England Biolabs, Beverly, Mass.). Antibody binding is detected using peroxidase linked anti-rabbit IgG (Amersham Pharmacia Biotech, Piscataway, N.J.) as the secondary antibody. The blots are developed using ECL-plus (Amersham Pharmacia Biotech, Piscataway, N.J.) to visualize the antibodies. The levels of ERK1/2 MAPK, phosphorylated-ERK1/2 MAPK, JNK, phosphorylated-JNK, p38 MAPK, and phosphorylated-p38 MAPK are quantitated by densitometry using an optical scanner system. For comparison, the ratios of phosphorylated ERK1/2, JNK, and p38 MAPK to nonphosphorylated ERK1/2, JNK, and p38 MAPK, respectively, are calculated from the densitometric data.

## C/C=C/C[C@@H](C)[C@@H](O)[C@H]1C(=O)N[C@@H](CC)C(=O)N(C)CC(=O)N(C)[C@@H]([C@@H](C)CC)C(=O)N[C@@H](C(C)C)C(=O)N(C)[C@@H](CC(C)C)C(=O)N[C@@H](C)C(=O)N[C@H](C)C(=O)N(C)[C@@H](CC(C)C)C(=O)N(C)[C@@H](CC(C)C)C(=O)N(C)[C@@H](C(C)C)C(=O)N1C [NIM811]
TWNT-4 cells [1]
  enhancement of expression of Smad7: ~2 fold
  expression of TIMP-1 (mRNA): did not change
  increase of expression of MMP-1 (mRNA): ~2 fold
  reduction of expression of type I collagen (mRNA): roughly 30%
  suppression of TGFβRI expression: ~50%
TWNT-4 cells [2]; 0.5 μM
  increase in collagenase activity (active MMP-1): roughly 2 fold
TWNT-4 cells [2]; 2.0 μM
  TIMP-1 production: does not significantly reduce TIMP-1 production
TWNT-4 cells [2]; increasing concentrations
  collagenase activity (active MMP-1) and pro-MMP-1 levels: concentration-dependent increase
Cell viability of HSCs
  viability at 24 h, 2 µM: > 90%
HCV
  replication of HCV in vitro: suppresses replication of HCV replication in vitro
MAPKs Signaling Pathways
  phosphorylation of ERK1/2: does not suppress ERK1/2
MAPKs Signaling Pathways; 0.5 μM
  enhancement of phosphorylation of JNK: ~3.6 fold
  enhancement of phosphorylation of p38 MAPK: ~2.3 fold
